The source of these data is patent US7060790B1, “Peptides and nucleic acids derived from Eisenia foetida and the use thereof” (Vlaams Interuniversitair Instituut voor Biotechnologie VZW, priority 1997, dated 2006).

One assay addresses T1, TNF-α (Mus musculus, UniProt P06804).
T1 sequence (P06804 80-235 limits assumed): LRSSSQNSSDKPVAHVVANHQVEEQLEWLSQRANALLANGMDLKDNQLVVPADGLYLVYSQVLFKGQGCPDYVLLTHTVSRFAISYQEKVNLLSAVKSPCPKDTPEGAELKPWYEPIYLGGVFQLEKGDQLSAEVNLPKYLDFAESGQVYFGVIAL
As to the kind of experiment: Inhibition of TNF-α mediated trypanolysis (T. brucei) by antibodies and carbohydrates. It is filed as cell-based. Conditions: inhibitor 10 μg/ml, TNF-α 1.000 U/ml. How it is done:
(§1) Purified parasites were resuspended at 4×10^6/ml PSG (PBS, consisting of 2.13 g NaCl, 8.45 g Na2HPO4 and 0.43 g NaH2PO4 per liter, supplemented with 1% glucose). […] of suspension were mixed with […] of different concentrations of CF, CCF-1 or TNF-α in 96-well culture plate. Quantification of the trypanolysis was based on the determination of parasite viability using Ethidium homodimer (EthD-1, Molecular Probes). EthD-1 is excluded by intact plasma membrane of live parasites. However, it enters the cells with damaged membrane and undergoes enhancement of fluorescence on binding nucleic acids, thereby producing a bright red fluorescence in dead cells. Briefly, after 4.5 hrs incubation at 30° C., […] of […] EthD-1 was added to the wells. The mean fluorescence intensity of triplicate cultures (±SD) was recorded 30 min later in a cytofluorimeter (Cytofluor II, PerSeptive Biosystems) using excitation/emission filters at 530±25/645±40 nm. A set of control was included in each experiments: (A) a parasite-free control to account for possible background fluorescence (B) a control of 100% lysis, prepared by treating the parasites with […] 2% saponin for about 10 min before adding EthD-1 (C) a control in which the trypanolytic component was replaced by PSG was considered as 0% lysis. (B) and (C) were used to build a standard curve and the % lysis in test samples was estimated by linear regression. In some assays parasite lysis was assessed by light microscopy counting the remaining parasites. Background lysis, i.e. lysis of trypanosomes within 5 hrs incubation at 30° C. in absence of lytic molecules, never exceeded 5–10%.
(§2) For inhibition experiments CCF-1 or TNF-α were pre-incubated 1 hr at 30° C. with 10 […] of antibodies (anti-CCF1, anti-TIP or irrelevant mAb) or sugars (chitobiose, cellobiose, Sigma). All experiments were repeated at least 3 times.

Assay [1] deals with CCF-1. Description: Inhibition of CCF-1 mediated trypanolysis (T. brucei) by antibodies and carbohydrates. Format: cell-based, Eisenia foetida. Conditions: for CCF-1 mediated trypanolysis % Inhibition / CCF-1 mediated trypanolysis % Lysis: inhibitor 10 μg/ml, CCF-1 4 μg/ml. How it is done: as §1, §2
Assay [2] deals with trypanolytic activity (T. cruzi) of CF. As to the kind of experiment: Inhibition of the trypanolytic activity (T. cruzi) of CF by antibodies and carbohydrates. Format: cell-based. How it is done: as §1, §2
In assay [3] the test system is CCF-1. As to the kind of experiment: Inhibition of the cytolytic activity of CCF-1 (L929) by antibodies and carbohydrates. It is filed as cell-based, Eisenia foetida. On the procedure: To test whether the cytolytic activity of CCF-1 is mediated by a similar or a different domain as that one utilized for the trypanolytic activity, CCF-1 was preincubated with N,N′-diacetylchitobiose or anti-TNF/TIP antibodies and tested in the L-929 lysis assay (21). […] This is in sharp contrast to the cytolytic activity of TNF-α that is not influenced by anti-TNF/TIP antibodies nor by N,N′-diacetylchitobiose.

Assay [4] has as its system Trypanosoma brucei AnTat 1.1E. As to the kind of experiment: Trypanolytic assay on T. brucei. Format: cell-based. How it is done:
Pleiomorphic and monomorphic Trypanosoma brucei AnTat 1.1E clone were provided by Dr N. Van Meirvenne (Institute of Tropical Medicine, Antwerp, Belgium).
as §1

The next assay relates to anti-CCF-1 mAb 12C9. As to the kind of experiment: Dot spot assay of tryptic peptides with anti-CCF-1 mAb. Format: binding. On the procedure: The separated peptides obtained from HPLC purification of the tryptic digest of CCF-1 were analyzed for reactivity with the anti-CCF-1 mAb via a dot spot assay. […] The obtained sequence is shown in SEQ ID NO:1.
Another assay deals with T. cruzi. Description: Trypanolytic activity on T. cruzi. Format: cell-based. Conditions: trypomastigote versus epimastigote forms. On the procedure:
as §1, with “(B) and (C) were used to build a standard curve and the % lysis in test samples was estimated by linear regression.” left out, “Background lysis, i.e. lysis of trypanosomes within 5 hrs incubation at 30° C. in absence of lytic molecules, never exceeded 5–10%.” left out

[5] abbreviates: inhibitor 10 μg/ml, CF final dilution 1:4.000.
[6] abbreviates: Experiment 1, inhibitor 10 μg/ml, CCF-1 4 μg/ml, L929.

Regarding `O=C[C@H](O)[C@@H](O)[C@H](O[C@@H]1O[C@H](CO)[C@@H](O)[C@H](O)[C@H]1O)[C@H](O)CO` [Cellobiose], at TNF-α, the “TNF-α mediated trypanolysis % Lysis” value came out at 41% and at 10 µg/mL the inhibition was 0%. Also, in the assay on CCF-1 [1], the “inhibition of the trypanolytic activity of CCF-1 (in words)” value is recorded as “does not influence the trypanolytic activity of CCF-1”, the “CCF-1 mediated trypanolysis % Inhibition” value is given as 0% and the “CCF-1 mediated trypanolysis % Lysis” value is 49%. Besides, the inhibition at 10 µg/mL in assay [2] (Trypanosoma cruzi, inhibitor 10 μg/ml, CF final dilution 1:4.000, read-out: CF-1 mediated trypanolysis % Inhibition) stood at 0%. Further, the “CF-1 mediated trypanolysis % Lysis” value in assay [2] (setting [5]) amounted to 67%.
In the case of `CC(=O)N[C@H]1[C@H](O[C@H]2[C@H](O)[C@@H](NC(C)=O)C(O)O[C@@H]2CO)O[C@H](CO)[C@@H](O)[C@@H]1O` (stereo partly shown) [N,N′-diacetylchitobiose], on TNF-α, the “TNF-α mediated trypanolysis % Inhibition” value turned out to be 100% and the “TNF-α mediated trypanolysis % Lysis” value stood at 0%. Also, in the assay with CCF-1 [3] (CCF-1 preincubated with inhibitor), the “inhibition of the interaction of CCF-1 with L-929 cells (in words)” value is “completely inhibited”. Besides, in the assay on CCF-1 [3] (setting [6]), the “CCF-1 mediated cytolysis % Inhibition” value was found to be 100% and the “CCF-1 mediated cytolysis % Lysis” value was 0%. Further, in the assay with CCF-1 [1], the “inhibition of the trypanolytic activity of CCF-1 (in words)” value was “found to inhibit also the trypanolytic activity of CCF-1”, the “CCF-1 mediated trypanolysis % Inhibition” value is 73% and the “CCF-1 mediated trypanolysis % Lysis” value came to 3%. The “inhibition of the trypanolytic activity of rCCF-1 (in words)” value in the assay on CCF-1 [1] (rCCF-1, FIG. 3A, 3B) is on record as “inhibits potently”. Besides, the “inhibition of the T. cruzi lytic activity of CF (in words)” value in assay [2] is “substantially decreased”. Further, in assay [2] (setting [5]), the “CF-1 mediated trypanolysis % Inhibition” value was 70% and the “CF-1 mediated trypanolysis % Lysis” value is given as 19%.
“NH2-SGEIDIIETIGNR-COOH (chain 1 H-SGEIDIIETIGNR-OH; chain 2 H-SGEIDIIETIGNR-OH; listed as Eisenia foetida) [CCF-1/TIP]”: in assay [4], the “trypanolytic activity on T. brucei (in words)” value is “trypanolytic in a time- and dose-dependent way”. The “trypanolytic activity compared with the TNF/TIP peptide” value in assay [4] (FIG. 1) is listed as “reproducibly more trypanolytic than the TNF/TIP peptide”. Also, the “reactivity with the anti-CCF-1 mAb 12C9 in dot spot assay” value with anti-CCF-1 mAb 12C9 is on record as “weakly positive”.
Regarding TNF-α, the “T. cruzi forms on which trypanolytic activity was recorded” value in the assay on T. cruzi was “only be recorded on the trypomastigote but not the epimastigote forms”. Moreover, the “binding to chitobiose / binding capacity towards N,N′-diacetylchitobiose” value in the assay “Binding to chitobiose” is “bind to immobilized chitobiose”. Also, the “TNF-α mediated trypanolysis % Lysis” value in assay [4] (TNF-α 1.000 U/ml, no inhibitor) stood at 41%.
